# Test results from PMC8308585, “Design and Synthesis of Novel Thiazolo[5,4-d]pyrimidine Derivatives with High Affinity for Both the Adenosine A1 and A2A Receptors, and Efficacy in Animal Models of Depression” (Pharmaceuticals, 2021).
# Like-named read-outs stand apart in the source and are kept apart here.
# What was measured:
# [1] = biological target: T1, hA2A AR (Homo sapiens, UniProt P29274); assay: Inhibition of NECA-induced increase of cAMP in CHO cells expressing hA2A AR (GloSensor cAMP assay); assay type: cell-based; settings: inhibition of NECA-stimulated adenylyl cyclase activity, mean ± standard error
# T1 construct: expressed in transfected cells; host or cells: CHO cells
# T1 sequence (P29274 whole entry): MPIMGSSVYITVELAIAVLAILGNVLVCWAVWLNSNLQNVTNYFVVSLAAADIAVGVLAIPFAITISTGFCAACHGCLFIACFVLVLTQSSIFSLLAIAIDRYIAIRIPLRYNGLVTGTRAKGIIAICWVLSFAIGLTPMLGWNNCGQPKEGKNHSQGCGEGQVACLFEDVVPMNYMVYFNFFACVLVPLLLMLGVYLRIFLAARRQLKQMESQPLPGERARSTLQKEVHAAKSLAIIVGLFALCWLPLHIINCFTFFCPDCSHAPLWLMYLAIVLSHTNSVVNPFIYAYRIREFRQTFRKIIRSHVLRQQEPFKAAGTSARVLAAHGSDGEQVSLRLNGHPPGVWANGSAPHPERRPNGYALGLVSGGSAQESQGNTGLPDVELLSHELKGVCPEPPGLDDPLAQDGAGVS
# Procedure: Compound 18 was also tested to evaluate its antagonist behavior at the hA1 AR by assessing its ability to counteract NECA-induced decrease of cAMP accumulation.
# The intrinsic activity of understudy compounds was evaluated through the GloSensor cAMP assay, as described previously. Briefly, cells stably expressing the hA1, hA2A, and hA2B ARs and the biosensor were incubated for 2 h at rt in equilibration medium containing 3% v/v GloSensor cAMP reagent stock solution, 10% FBS, and 87% CO2 independent medium. Afterward, cells were dispensed in the wells of a 384-well plate and the reference agonist NECA or the compounds, at different concentrations, were tested. The antagonist profile of compounds was evaluated by assessing their ability to counteract NECA-induced increase (A2A and A2B ARs) or decrease (A1 AR) of cAMP accumulation. Responses were expressed as percentage of the maximal relative luminescence units (RLU).
# Binding data and concentration–response curves were fitted by a nonlinear regression with the Prism program (GraphPAD Prism 7 Software, San Diego, CA, USA). Each concentration was tested 3–5 times in duplicate and the Ki or IC50 (the concentration of antagonists that produces 50% inhibition of the agonist effect) values are given as the mean ± standard error (S.E.).
# [2] = biological target: T2, human A2A AR (Homo sapiens, UniProt P29274); assay: Radioligand binding, displacement of [3H]-NECA at hA2A AR in CHO cells;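 also: competition binding on membranes from CHO cells stably transfected with human A2A receptor, binding curves fitted by nonlinear regression in GraphPad Prism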
# T2 construct: expressed in transfected cells; host or cells: CHO cells
# T2 sequence (P29274 whole entry): as above
# Procedure: CHO cells, stably expressing hARs, were grown adherently and maintained in Dulbecco’s modified Eagle’s medium (DMEM) with nutrient mixture F12 supplemented with 10% fetal bovine serum (FBS), penicillin (100 µg/mL), streptomycin (100 µg/mL), sodium pyruvate (1 mM), and geneticin (0.1 mg/mL).
# Briefly, cells were homogenized in cold lysis buffer (5 mM Tris HCl, 2 mM EDTA, pH 7.4), centrifuged at low speed spin for 10 min, and subsequently, the supernatant was spun at 37,000 rpm. Membrane pellet was resuspended in the specific buffer and stored at −80 °C.
# The binding affinity of the novel compounds was evaluated using radioligand competition experiments in CHO cells stably transfected with hA1 AR, hA2A AR, and hA3 AR subtypes.
# [3] = tested on: mice; assay: Sucrose preference test, LPS-induced anhedonia; assay type: in vivo, mouse; settings: for Sucrose Preference (%), 6 h / Sucrose Preference (%), 24 h: LPS 1.25 mg kg^−1 i.p. mice; for Sucrose Preference (%), 6 h: 6 h after LPS, vehicle + LPS 42.3 ± 3.1; for Sucrose Preference (%), 24 h: 24 h after LPS, vehicle + LPS 38.0 ± 5.6
# Procedure: Anhedonia, or the inability to experience pleasure, is a common symptom of depression. The mood regulatory role of 18 was studied against anhedonia evaluated in the sucrose preference test in animals treated with lipopolysaccharide (LPS), a model of neuroinflammation-induced depressive-like syndrome. Compound 18 (10 mg kg^−1 and 30 mg kg^−1) was daily p.o administered for five consecutive days. Twenty-four hours after the last 18 treatment, LPS 1.25 mg kg^−1 was intraperitoneally injected. Immediately after LPS injection, mice were placed in cages equipped with two bottles: a bottle of 2% sucrose solution and a bottle of water (unsweetened tap water). The consumption of the 2% sucrose solution was evaluated 6 h and 24 h after LPS injection. Amitriptyline (15 mg kg^−1) was used as the reference drug administered following the same protocol.
# (§1) Male CD-1 albino mice (22–25 g; Envigo, Varese, Italy) were housed in CeSAL (Centro Stabulazione Animali da Laboratorio, University of Florence, Florence, Italy) and used at least one week after their arrival. Animals were housed in 26 cm × 41 cm cages (12 mice each) and fed with a standard laboratory diet and tap water ad libitum. They were kept at 23 ± 1 °C with a 12 h light/dark cycle, light at 7 a.m. Compound 18 was administered per o.s. whereas amitriptyline was by a s.c. route following the most widely used approach reported in the literature.
# Lipopolysaccharide (LPS) from Escherichia coli was purchased from Sigma-Aldrich, (Milan, Italy) freshly dissolved in sterile saline, and injected intraperitoneally (i.p.) at the dose of 1.25 mg kg^−1 [49] after five consecutive days of treatment with compound 18, 1 h after the last administration of the compound. Behavioral tests were performed before 6 h and 24 h after LPS administration.
# Mice were placed in cages equipped with a couple of bottles, one containing 2% sucrose solution, the second with water (unsweetened tap water). The consumption of the 2% sucrose solution was evaluated 6 h and 24 h after the beginning of the experiment. The preference index was calculated according to the following formula: preference index = volume consumed sucrose solution/(volume consumed sucrose solution + volume consumed water).
# Behavioral tests were performed by visual observation by researchers blinded to the treatments. Results were expressed as means ± SEM, variance was analyzed by ANOVA. A Bonferroni’s significant difference procedure was used as post-hoc comparison. p values of less than 0.05 and 0.01 were considered significant. Data were analyzed using the “Origin 8.1” software.
# [4] = tested on: mice; assay: Tail suspension test; assay type: in vivo; settings: mouse TST, single dose, mean ± SEM of 10 mice, vehicle 99.0 ± 6.8
# Procedure: To execute the tests, mice were divided into groups, each of which consisted of 10 animals. The tests were performed after a single p.o. administration of compound 18 at different dosages (10 mg Kg^−1 and 30 mg Kg^−1). Amitriptyline (15 mg Kg^−1) was used as the reference drug. Compounds were acutely administrated 26 min before the beginning of the experiment. In the FST (Table 4), the duration of immobility was recorded during the last 4 min of the 6 min test.
# A decrease in the duration of immobility is indicative of an antidepressant-like effect. […] Accordingly, a similar activity was shown in the tail suspension test (Table 5) where the immobility time was measured in the first 2 min, when animals react to the inescapable stress, and in the last 4 min of the test, when the behavioral despair is established. Immobility was defined as the absence of any limb or body movements, except those caused by respiration. A reduction in the duration of the immobility time is indicative of an antidepressant-like effect.
# as §1, with “Compound 18 was administered per o.s. whereas amitriptyline was by a s.c. route following the most widely used approach reported in the literature.” left out
# A piece of tape was adhered to the upper middle of the tail of each animal, creating a flap with the overlap of tape. […] The duration of the test was 6 min and the immobility time was measured in the first 2 min, when animals react to the inescapable stress, and in the last 4 min of the test, when the behavioral despair is established. […]
# Behavioral tests were performed by visual observation by researchers blinded to the treatments. Results were expressed as means ± SEM, variance was analyzed by ANOVA. […] Data were analyzed using the “Origin 8.1” software.
# [5] = 10 mg kg^−1 p.o. daily for 5 days
# [6] = 30 mg kg^−1 p.o. daily for 5 days
structure (smiles),measurement,setting,value
"Nc1nc(-c2ccco2)nc2sc(Cc3ccccc3F)nc12 [compound 18, 2-(2-Fluorobenzyl)-5-(furan-2-yl)thiazolo[5,4-d]pyrimidin-7-amine]",IC50,[1],14 ± 3.4 nM
same,Ki,"[2]; displacement of specific [3H]-NECA binding, CHO cells, mean ± SEM, read-out: hA2A Ki",0.06 ± 0.02 nM
same,Ki,"[2]; hA2A AR, as listed in Table 3, read-out: pKi A2A (converted)",0.0646 nM
same,"Sucrose Preference (%), 6 h",[3]; [5],48.9 ± 6.7%
same,"Sucrose Preference (%), 24 h",[3]; [5],39.7 ± 3.7%
same,"Sucrose Preference (%), 6 h",[3]; [6],67.3 ± 1.6 %
same,"Sucrose Preference (%), 24 h",[3]; [6],64.9 ± 2.6 %
same,"Anhedonia-like behavior induced by LPS, preference index (in words)","[3]; mouse, 30 mg kg^−1 p.o. daily for 5 days",able to revert the anhedonia-like behavior induced by LPS comparably to the effect of amitriptyline
same,Immobility Time,[4]; 10 mg kg^−1 p.o.,88.9 ± 10.16 s
same,Immobility Time,[4]; 30 mg kg^−1 p.o.,56.5 ± 6.1 s
